The values that follow are results of earlier work, collected in PMC5328943 (International journal of pharmaceutics, 2017).

In brackets after ≈: the same amount, converted by molar mass.

For this data set the following is noted: with TPGS; ref Yu et al., 1999.

For `CC(C)CN(C[C@@H](O)[C@H](Cc1ccccc1)NC(=O)O[C@H]1CCOC1)S(=O)(=O)c1ccc(N)cc1` [amprenavir], the solubility in water is 720 µg/mL (≈ 1420 µM).
